Data: ChEMBL document CHEMBL4177733, “(-)-9'-O-(α-l-Rhamnopyranosyl)lyoniresinol from Lespedeza cuneata suppresses ovarian cancer cell proliferation through induction of apoptosis” (Bioorg Med Chem Lett, 2018)
The source made the active and inactive calls. The rule behind the calls is not given here.

What was measured:
A2780 [1] = assay: Cytotoxicity against human A2780 cells assessed as reduction in cell viability at 5 to 100 uM incubated for 24 hrs by MTT assay; assay type: functional, cell-based
MCF7 = assay: Cytotoxicity against human MCF7 cells assessed as reduction in cell viability at 5 to 100 uM incubated for 24 hrs by MTT assay; assay type: functional, cell-based
A2780 [2] = assay: Induction of apoptosis in human A2780 cells assessed as PARP cleavage at 50 to 100 uM incubated for 24 hrs by Western blot; assay type: functional, cell-based
A2780 [3] = assay: Induction of apoptosis in human A2780 cells assessed as BID cleavage at 50 to 100 uM incubated for 24 hrs by Western blot; assay type: functional, cell-based
A2780 [4] = assay: Induction of apoptosis in human A2780 cells assessed as caspase-3 activation at 50 to 100 uM incubated for 24 hrs by Western blot; assay type: functional, cell-based
A2780 [5] = assay: Induction of apoptosis in human A2780 cells assessed as reduction in Bcl-2 protein level at 50 to 100 uM incubated for 24 hrs by Western blot; assay type: functional, cell-based
A2780 [6] = assay: Induction of apoptosis in human A2780 cells assessed as induction of cell condensation at 50 to 100 uM incubated for 24 hrs by Hoechst 33342 staining based fluorescence microscopy; assay type: functional
LLC-PK1 = assay: Cytotoxicity against LLC-PK1 cells assessed as reduction in cell viability at 5 to 100 uM incubated for 24 hrs by MTT assay; assay type: cell-based; conditions: Sus scrofa, LLC-PK1, 24 h
A2780 [7] = assay: Induction of apoptosis in human A2780 cells assessed as induction of cell blebbing at 50 to 100 uM incubated for 24 hrs by Hoechst 33342 staining based fluorescence microscopy; assay type: functional
A2780 [8] = assay: Induction of apoptosis in human A2780 cells assessed as increase in BAX protein level at 50 to 100 uM incubated for 24 hrs by Western blot; assay type: functional, cell-based
A2780 [9] = assay: Induction of apoptosis in human A2780 cells assessed as caspase-9 activation at 50 to 100 uM incubated for 24 hrs by Western blot; assay type: functional, cell-based
A2780 [10] = assay: Induction of apoptosis in human A2780 cells assessed as caspase-8 activation at 50 to 100 uM incubated for 24 hrs by Western blot; assay type: functional, cell-based
A2780 [11] = assay: Induction of apoptosis in human A2780 cells assessed as induction of cell shrinkage at 50 to 100 uM incubated for 24 hrs by Hoechst 33342 staining based fluorescence microscopy; assay type: functional
HeLa = assay: Cytotoxicity against human HeLa cells assessed as reduction in cell viability at 5 to 100 uM incubated for 24 hrs by MTT assay; assay type: functional, cell-based

Q: How did the Activity (A2780 [1]) turn out when `COc1cc([C@@H]2c3cc(O)c(OC)cc3C[C@H](CO)[C@H]2CO[C@@H]2O[C@@H](C)[C@H](O)[C@@H](O)[C@H]2O)ccc1O` was run?
A: Its Activity is “inactive”.

Q: Which Activity (MCF7) does the source give for `COc1cc([C@@H]2c3c(cc(OC)c(O)c3OC)C[C@H](CO)[C@H]2CO[C@@H]2O[C@@H](C)[C@H](O)[C@@H](O)[C@H]2O)cc(OC)c1O` here?
A: Its Activity is “inactive”.

Q: And the Activity (A2780 [2])?
A: The Activity was “Active”.

Q: What about the Activity (A2780 [3]) of the same molecule?
A: Its Activity is “Active”.

Q: What about the Activity (A2780 [4]) of the same molecule?
A: Its Activity is “Active”.

Q: What about the Activity (A2780 [5]) of the same molecule?
A: Its Activity is “Active”.

Q: What about the Activity (A2780 [6]) of the same molecule?
A: The Activity was “Active”.

Q: What about the IC50 (LLC-PK1) of the same molecule?
A: The IC50 was > 100 µM.

Q: What about the Activity (A2780 [7]) of the same molecule?
A: The Activity was “Active”.

Q: And the Activity (A2780 [8])?
A: The Activity was “Active”.

Q: And the Activity (A2780 [1])?
A: Its Activity is “Dose-dependent effect”.

Q: And the IC50 (A2780 [1]; A2780, 24 h)?
A: The IC50 was 35.4 µM.

Q: And the Activity (A2780 [9])?
A: The Activity was “inactive”.

Q: What about the Activity (A2780 [10]) of the same molecule?
A: Its Activity is “Active”.

Q: And the Activity (A2780 [11])?
A: Its Activity is “Active”.

Q: And the Activity (HeLa)?
A: The Activity was “inactive”.

Q: How did the Activity (A2780 [1]) turn out when `O=c1c(O)c(-c2ccc(O)cc2)oc2cc(O[C@@H]3O[C@H](CO)[C@@H](O)[C@H](O)[C@H]3O)cc(O)c12` was run?
A: The Activity was “inactive”.

Q: How did the Activity (A2780 [1]) turn out when `COc1cc(C(=O)O)cc(OC)c1O` was run?
A: The Activity was “Active”.

Q: With `COc1cc(C(=O)O)ccc1O` as the molecule, how does the Activity (A2780 [1]) read?
A: Its Activity is “inactive”.

Q: How did the Activity (A2780 [1]) turn out when `O=c1c(O[C@@H]2O[C@H](CO)[C@@H](O)[C@H](O)[C@H]2O)c(-c2ccc(O)cc2)oc2cc(O)cc(O)c12` was run?
A: The Activity was “inactive”.

Q: How did the Activity (A2780 [1]) turn out when `O=c1cc(-c2ccc(O)c(O)c2)oc2c([C@@H]3O[C@H](CO)[C@@H](O)[C@H](O)[C@H]3O)c(O)cc(O)c12` was run?
A: The Activity was “inactive”.

Q: Which Activity (A2780 [1]) does the source give for `COc1cc2c(cc1O)[C@H](c1cc(OC)c(O)c(OC)c1)[C@@H](CO[C@@H]1O[C@@H](C)[C@H](O)[C@@H](O)[C@H]1O)[C@H](CO)C2` here?
A: The Activity was “inactive”.

Q: How did the Activity (A2780 [1]) turn out when `COc1cc([C@H]2c3cc(O)c(OC)cc3C[C@@H](CO)[C@@H]2CO[C@@H]2O[C@@H](C)[C@H](O)[C@@H](O)[C@H]2O)ccc1O` was run?
A: The Activity was “inactive”.
